20 compounds from PubChem BioAssay AID330 (DTP/NCI, 2004) can be followed below.

Several values for one entry are separate records, joined by “and”; a condition that tells them apart may be missing. Equal entries are not always repeated. Toxic doses and inconclusive results are not listed.

This experiment has as its system P388 leukemia ip, CD2F1 mice, survival T/C. The experiment is described as follows: NCI In Vivo Anticancer Drug Screen. Data for tumor model P388 Leukemia (intraperitoneal) in CD2F1 (CDF1) mice. Particulars: endpoint: median survival time, higher = longer survival. Summed up:
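Mice carrying the transplanted tumor received test compound or vehicle. Survival was recorded in each group, and the value is the treated-group measurement divided by that of the vehicle-treated control group.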

Setting [1] is: dose: 50.0 mg/kg/injection, schedule: Q01DX009 (ip), vehicle: saline with Tween-80.
Where [2] appears, read: dose: 100.0 mg/kg/injection, schedule: Q01DX009 (ip), vehicle: saline with Tween-80.
The mark [3] stands for this setting: dose: 200.0 mg/kg/injection, schedule: Q01DX009 (ip), vehicle: saline with Tween-80.
[4] abbreviates: dose: 100.0 mg/kg/injection, schedule: Q04DX003 (ip), vehicle: saline with Tween-80.
The mark [5] stands for this setting: dose: 50.0 mg/kg/injection, schedule: Q01DX009 (ip), vehicle: Klucel (hydroxypropylcellulose) (HPC).
[6] abbreviates: dose: 100.0 mg/kg/injection, schedule: Q01DX009 (ip), vehicle: Klucel (hydroxypropylcellulose) (HPC).
Where [7] appears, read: dose: 200.0 mg/kg/injection, schedule: Q01DX009 (ip), vehicle: Klucel (hydroxypropylcellulose) (HPC).
The mark [8] stands for this setting: dose: 12.5 mg/kg/injection, schedule: Q01DX009 (ip), vehicle: saline.
The mark [9] stands for this setting: dose: 25.0 mg/kg/injection, schedule: Q01DX009 (ip), vehicle: saline.
Where [10] appears, read: dose: 50.0 mg/kg/injection, schedule: Q01DX009 (ip), vehicle: saline.

With `S=C(Nc1ccccc1)NC1SNC(=Nc2ccccc2)N1c1ccccc1` (configuration not stated), the T/C (dose: 50.0 mg/kg/injection, schedule: Q01DX005 (ip), vehicle: saline with Tween-80) is 106 % of control; the T/C (dose: 100.0 mg/kg/injection, schedule: Q01DX005 (ip), vehicle: saline with Tween-80) was 95 % of control; the T/C (dose: 200.0 mg/kg/injection, schedule: Q01DX005 (ip), vehicle: saline with Tween-80) is 95 % of control.

Take `CCN(CC)C(=Nc1ccccc1)NC#N`: the T/C (dose: 50.0 mg/kg/injection, schedule: Q01DX005 (ip), vehicle: Klucel (hydroxypropylcellulose) (HPC)) was 110 % of control; the T/C (dose: 100.0 mg/kg/injection, schedule: Q01DX005 (ip), vehicle: Klucel (hydroxypropylcellulose) (HPC)) was 105 % of control; the T/C (dose: 200.0 mg/kg/injection, schedule: Q01DX005 (ip), vehicle: Klucel (hydroxypropylcellulose) (HPC)) was 96 % of control.

As for `CSc1ncc(C=O)n1Cc1ccccc1`, the T/C (dose: 17.5 mg/kg/injection, schedule: Q01DX005 (ip), vehicle: Klucel (hydroxypropylcellulose) (HPC)) was 115 % of control; the T/C (dose: 35.0 mg/kg/injection, schedule: Q01DX005 (ip), vehicle: Klucel (hydroxypropylcellulose) (HPC)) is 98 % of control; the T/C (dose: 70.0 mg/kg/injection, schedule: Q01DX005 (ip), vehicle: Klucel (hydroxypropylcellulose) (HPC)) was 101 % of control.

For `COc1ccccc1C1C2CCCC(C2O)C(c2ccccc2OC)N1C` (configuration not stated), the T/C runs as follows: (dose: 100.0 mg/kg/injection, schedule: Q04DX003 (ip), vehicle: saline) 99 % of control and 92 % of control; (dose: 100.0 mg/kg/injection, schedule: Q04DX003 (ip), vehicle: suspension in saline) 100 % of control; (dose: 200.0 mg/kg/injection, schedule: Q04DX003 (ip), vehicle: saline) 98 % of control and 102 % of control; (dose: 200.0 mg/kg/injection, schedule: Q04DX003 (ip), vehicle: suspension in saline) 107 % of control; (dose: 400.0 mg/kg/injection, schedule: Q04DX003 (ip), vehicle: saline) 98 % of control and 94 % of control; (dose: 400.0 mg/kg/injection, schedule: Q04DX003 (ip), vehicle: suspension in saline) 99 % of control.

With `Cn1ccoc1=NC1CCCCC1`, the T/C is 110 % of control under setting [1], 100 % of control under setting [2] and 100 % of control under setting [3].

`C[C@]12CCC(=O)C=C1CC[C@@H]1[C@@H]2[C@@H](O)C[C@@]2(C)[C@H]1CC[C@]2(O)C(=O)COC(=O)COCC(=O)O`: the T/C reads like this: under setting [4], 104 % of control; (dose: 200.0 mg/kg/injection, schedule: Q04DX003 (ip), vehicle: saline with Tween-80) 100 % of control; (dose: 400.0 mg/kg/injection, schedule: Q04DX003 (ip), vehicle: saline with Tween-80) 116 % of control.

As for `O=C1C(Sc2ccccc2)CCCC1Sc1ccccc1` (configuration not stated), the T/C reads like this: (dose: 25.0 mg/kg/injection, schedule: Q01DX009 (ip), vehicle: Klucel (hydroxypropylcellulose) (HPC)) 109 % of control; under setting [5], 100 % of control; under setting [6], 98 % of control.

Take `CC(=O)N[C@@H](Cc1ccc(N(CCCl)CCCl)cc1)C(=O)ON1C(=O)CCC1=O`: the T/C is, setting by setting: (dose: 5.8 mg/kg/injection, schedule: Q01DX009 (ip), vehicle: saline) 168 % of control; (dose: 5.8 mg/kg/injection, schedule: Q03HX008 (ip), vehicle: saline) 160 % of control; (dose: 11.6 mg/kg/injection, schedule: Q01DX009 (ip), vehicle: saline) 190 % of control; (dose: 11.6 mg/kg/injection, schedule: Q03HX008 (ip), vehicle: saline) 195 % of control; (dose: 23.2 mg/kg/injection, schedule: Q03HX008 (ip), vehicle: saline) 260 % of control.

With `CN(C)/N=C1\C(=O)Nc2c(Cl)cc(Cl)cc21`, the T/C was 94 % of control under setting [5], 94 % of control under setting [6] and 94 % of control under setting [7].

As for `CCC1=C[C@H]2CN(CCc3c([nH]c4ccccc34)[C@@](C(=O)OC)(c3cc4c(cc3OC)N(C)[C@H]3C(C(=O)OC)=C[C@]5(CC)C=CCN6CC[C@]43[C@@H]65)C2)C1`, the T/C is 101 % of control (dose: 1.0 mg/kg/injection, schedule: Q01DX001 (ip), vehicle: other); 99 % of control (dose: 2.0 mg/kg/injection, schedule: Q01DX001 (ip), vehicle: other); 105 % of control (dose: 4.0 mg/kg/injection, schedule: Q01DX001 (ip), vehicle: other); 107 % of control and 120 % of control (dose: 8.0 mg/kg/injection, schedule: Q01DX001 (ip), vehicle: other); 124 % of control (dose: 16.0 mg/kg/injection, schedule: Q01DX001 (ip), vehicle: distilled water + Tween-80); 113 % of control (dose: 16.0 mg/kg/injection, schedule: Q01DX001 (ip), vehicle: other). For the same compound, the T/C is 171 % of control (dose: 64.0 mg/kg/injection, schedule: Q01DX001 (ip), vehicle: distilled water + Tween-80); 121 % of control (dose: 64.0 mg/kg/injection, schedule: Q01DX001 (ip), vehicle: other); 183 % of control (dose: 128.0 mg/kg/injection, schedule: Q01DX001 (ip), vehicle: other).

In the case of `CC1(C)CCC(C)(C)NC(=S)N1`, the T/C reads like this: (dose: 3.13 mg/kg/injection, schedule: Q01DX009 (ip), vehicle: saline with Tween-80) 96 % of control; (dose: 6.25 mg/kg/injection, schedule: Q01DX009 (ip), vehicle: saline with Tween-80) 105 % of control; (dose: 12.5 mg/kg/injection, schedule: Q01DX009 (ip), vehicle: saline with Tween-80) 96 % of control.

Regarding `Brc1ccc2[nH]c3nc(N/N=C/c4cccs4)nnc3c2c1`, the T/C (dose: 100.0 mg/kg/injection, schedule: Q04DX002 (ip), vehicle: saline with Tween-80) is 90 % of control; the T/C (dose: 200.0 mg/kg/injection, schedule: Q04DX002 (ip), vehicle: saline with Tween-80) was 99 % of control; the T/C (dose: 400.0 mg/kg/injection, schedule: Q04DX002 (ip), vehicle: saline with Tween-80) is 106 % of control.

For `Cc1ccc(C(N)=Nc2ccccc2)cc1`, the T/C (dose: 60.0 mg/kg/injection, schedule: Q01DX005 (ip), vehicle: saline with Tween-80) is 100 % of control.

As to `N#Cc1sc(=S)n(-c2ccccc2)c1N`, the T/C was 98 % of control under setting [8]; 107 % of control under setting [9]; 103 % of control and 104 % of control under setting [10].

For the compound `CN(C)c1ccc(/C=C/c2ccc3ccccc3n2)cc1`, the T/C (dose: 25.0 mg/kg/injection, schedule: Q01DX009 (ip), vehicle: saline with Tween-80) is 95 % of control; the T/C under setting [1] is 100 % of control; the T/C under setting [2] was 100 % of control; the T/C under setting [4] was 100 % of control.

For the compound `c1ccc(-c2cc(CNc3nc4ccccc4s3)on2)cc1`, the T/C is, setting by setting: under setting [5], 99 % of control; under setting [6], 99 % of control; under setting [7], 99 % of control.

On to `FC(F)(F)C1OC2CCCN2C2=C1CCc1ccccc12` (configuration not stated), for which the T/C runs as follows: (dose: 100.0 mg/kg/injection, schedule: Q04DX002 (ip), vehicle: saline) 108 % of control; (dose: 200.0 mg/kg/injection, schedule: Q04DX002 (ip), vehicle: saline) 101 % of control; (dose: 400.0 mg/kg/injection, schedule: Q04DX002 (ip), vehicle: saline) 100 % of control.

Consider `CCCCCCCC[N+]1(CC)CCCC1`, for which the T/C was 95 % of control (dose: 3.12 mg/kg/injection, schedule: Q01DX009 (ip), vehicle: saline); 95 % of control (dose: 6.25 mg/kg/injection, schedule: Q01DX009 (ip), vehicle: saline); 96 % of control under setting [8].

As to `O=C(N/N=C/c1ccccc1F)c1ccncc1`, the T/C is 98 % of control under setting [1], 97 % of control under setting [2] and 104 % of control under setting [3].

`S=P1(c2ccccc2)C=C(N2CCCC2)CC1` (configuration not stated): the T/C reads like this: under setting [8], 109 % of control; under setting [9], 110 % of control; under setting [10], 112 % of control; (dose: 100.0 mg/kg/injection, schedule: Q01DX009 (ip), vehicle: saline) 104 % of control; (dose: 200.0 mg/kg/injection, schedule: Q01DX009 (ip), vehicle: saline) 96 % of control.
